Experimental data taken from BindingDB's records for doi:10.1016/j.bmc.2007.01.046 (University of Tokyo, 2007).

molecular target: T1, Bile acid receptor (Homo sapiens, UniProt Q96RI1); test: Cotransfection Assay; settings: pH 7.2; 37 °C
T1 sequence (Q96RI1 whole entry): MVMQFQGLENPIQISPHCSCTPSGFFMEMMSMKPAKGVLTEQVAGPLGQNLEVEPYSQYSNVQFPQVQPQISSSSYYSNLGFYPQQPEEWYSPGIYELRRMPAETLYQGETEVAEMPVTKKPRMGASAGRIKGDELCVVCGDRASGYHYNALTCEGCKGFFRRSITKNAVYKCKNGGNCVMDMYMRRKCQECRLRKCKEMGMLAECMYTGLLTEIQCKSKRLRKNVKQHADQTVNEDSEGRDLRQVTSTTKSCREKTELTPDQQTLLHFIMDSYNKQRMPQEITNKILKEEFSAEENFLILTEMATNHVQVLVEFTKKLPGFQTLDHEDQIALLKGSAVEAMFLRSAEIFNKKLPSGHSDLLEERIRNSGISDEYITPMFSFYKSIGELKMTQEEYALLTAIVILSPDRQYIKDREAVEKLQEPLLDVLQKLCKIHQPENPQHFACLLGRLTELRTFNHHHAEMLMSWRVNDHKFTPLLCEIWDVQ

SMILES	EC50
O=C(O)c1cccc(/C=C/c2ccc(OCc3c(-c4c(Cl)cccc4Cl)noc3-c3ccc(-c4ccccc4)cc3)cc2Cl)c1 [3-[(E)-2-(2-chloro-4-{[3-(2,6-dichlorophenyl)-5-(4-phenylphenyl)-1,2-oxazol-4-yl]methoxy}phenyl)ethenyl]benzoic acid]	33.9 µM
O=C(O)c1cccc(/C=C/c2ccc(OCc3c(-c4c(Cl)cccc4Cl)noc3-c3ccc4ccccc4c3)cc2Cl)c1 [3-[(E)-2-(2-chloro-4-{[3-(2,6-dichlorophenyl)-5-(naphthalen-2-yl)-1,2-oxazol-4-yl]methoxy}phenyl)ethenyl]benzoic acid]	22.2 µM
O=C(O)c1cccc(/C=C/c2ccc(OCc3c(-c4c(Cl)cccc4Cl)noc3-c3ccccc3)cc2Cl)c1 [3-[(E)-2-(2-chloro-4-{[3-(2,6-dichlorophenyl)-5-phenyl-1,2-oxazol-4-yl]methoxy}phenyl)ethenyl]benzoic acid]	15.8 µM

Now from value to molecule:

EC50	SMILES
3.7 µM	O=C(O)c1cccc(NC(=O)c2ccc(OCc3c(-c4c(Cl)cccc4Cl)noc3-c3ccc(-c4ccccc4)cc3)cc2Cl)c1 [3-[(2-chloro-4-{[3-(2,6-dichlorophenyl)-5-(4-phenylphenyl)-1,2-oxazol-4-yl]methoxy}benzene)amido]benzoic acid]
4 µM	O=C(O)c1cccc(NC(=O)c2ccc(OCc3c(-c4c(Cl)cccc4Cl)noc3-c3ccc4ccccc4c3)cc2Cl)c1 [3-[(2-chloro-4-{[3-(2,6-dichlorophenyl)-5-(naphthalen-2-yl)-1,2-oxazol-4-yl]methoxy}benzene)amido]benzoic acid]
